According to US20250230193A1, “CYCLIC COMPOUND HAVING SELECTIVE KRAS INHIBITORY EFFECT ON HRAS AND NRAS” (CHUGAI SEIYAKU KABUSHIKI KAISHA, priority 2022, published 2025):
Where a SMILES comes first, the peptide text is derived from it. Bridges are numbered along the chain shown (N, C = ends). [ ]: non-standard residue; d: D form. The star is where a group is joined. hPhe(3-Cl-4-CF3) = N[C@@H](CCc1ccc(C(F)(F)F)c(Cl)c1)C(=O)O; NPrPhe(4-CF3) = CCCN[C@@H](Cc1ccc(C(F)(F)F)cc1)C(=O)O; NMeGly(cPent) = CN[C@H](C(=O)O)C1CCCC1; Hyp = O=C(O)[C@@H]1C[C@@H](O)CN1; NMeL = CN[C@@H](CC(C)C)C(=O)O; Morpholide = C1CN(*)CCO1; Ac5c = NC1(C(=O)O)CCCC1; Sar = CNCC(=O)O

Columns and labels:
[1] = target: GDP-bound HRAS wild-type protein (Homo sapiens, UniProt P01112); test: Binding to HRAS by surface plasmon resonance (SPR), Single Cycle Kinetics
[2] = target: GDP-bound NRAS wild-type protein (Homo sapiens, UniProt P01111); test: Binding to NRAS by surface plasmon resonance (SPR), Single Cycle Kinetics
[3] = KD ratio, GDP-bound HRAS wild-type vs GDP-bound KRAS wild-type, SPR
[4] = KD ratio, GDP-bound NRAS wild-type vs GDP-bound KRAS wild-type, SPR

Sequence of GDP-bound NRAS wild-type protein (P01111 whole entry): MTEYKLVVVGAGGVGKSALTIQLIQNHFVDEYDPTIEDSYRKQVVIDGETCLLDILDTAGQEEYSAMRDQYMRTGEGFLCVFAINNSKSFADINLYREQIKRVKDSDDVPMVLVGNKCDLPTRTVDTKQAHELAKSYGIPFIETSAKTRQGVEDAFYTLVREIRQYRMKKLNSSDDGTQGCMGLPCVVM
Sequence of GDP-bound HRAS wild-type protein (P01112 whole entry): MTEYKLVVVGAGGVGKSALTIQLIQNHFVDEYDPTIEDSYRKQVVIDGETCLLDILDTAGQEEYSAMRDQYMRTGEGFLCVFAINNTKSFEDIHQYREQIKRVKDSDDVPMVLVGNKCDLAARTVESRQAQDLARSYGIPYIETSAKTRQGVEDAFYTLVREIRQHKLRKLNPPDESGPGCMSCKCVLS

For `CC[C@H](C)[C@@H]1NC(=O)[C@H](CC(C)C)N(C)C(=O)C[C@@H](C(=O)N2CCOCC2)N(C)C(=O)[C@H](C2CCCC2)N(C)C(=O)C2(CCC2)NC(=O)[C@@H]2C[C@@H](OCC3CCCC3)CN2C(=O)[C@H](CCc2cc(F)c(C(F)(F)F)c(F)c2)NC(=O)CN(C)C(=O)[C@H](Cc2ccc(C(F)(F)F)cc2)N2CCCC[C@@H](C2=O)N(C)C(=O)CN(C)C1=O` [PP1001], the “HRAS/KRAS (ratio of KD value with respect to HRAS to KD value with respect to KRAS)” value [1, 3] was “B (a compound having 3 or more and less than 10 is denoted as B)” and the “NRAS/KRAS (ratio of KD value with respect to NRAS to KD value with respect to KRAS)” value [2, 4] was “B (a compound having 3 or more and less than 10 is denoted as B)”.

With `CCO[C@@H]1C[C@H]2C(=O)NC3(CCC3)C(=O)N(C)[C@@H](C3CCCC3)C(=O)N(C)[C@H](C(=O)N(CC)CC)CC(=O)N(C)[C@@H](CC)C(=O)N[C@@H]([C@@H](C)CC)C(=O)N(C)CC(=O)N(C)[C@H]3C/C=C\CCN(C3=O)[C@@H](Cc3ccc(C(F)(F)F)cc3)C(=O)N(C)CC(=O)N[C@@H](CCc3cc(F)c(C(F)(F)F)c(F)c3)C(=O)N2C1` [PP1305] the “HRAS/KRAS (ratio of KD value for GDP-bound HRAS wild-type protein to KD value for KRAS)” value ([1]; SPR, KD ratio class) was “A (a compound having 10 or more and less than 20 is denoted as A)” and the “NRAS/KRAS (ratio of KD value for GDP-bound NRAS wild-type protein to KD value for KRAS)” value ([2]; SPR, KD ratio class) was “AA (a compound having 20 or more is denoted as AA)”.

For `CCCC[C@H]1C(=O)N[C@@H]([C@@H](C)CC)C(=O)N(C)CC(=O)N(C)[C@H]2C/C=C\CCN(C2=O)[C@@H](Cc2ccc(C(F)(F)F)cc2)C(=O)N(C)CC(=O)N[C@@H](CCc2cc(F)c(C(F)(F)F)c(F)c2)C(=O)N2C[C@@H](C)C[C@H]2C(=O)NC2(CC(C)(C)C2)C(=O)N(C)[C@@H](C2CCCC2)C(=O)N(C)[C@H](C(=O)N(C)C)CC(=O)N1C` [PP1661], the “HRAS/KRAS (ratio of KD value for HRAS to KD value for KRAS)” value [1, 3] was “A (a compound having 10 or more and less than 20 is denoted as A)” and the “NRAS/KRAS (ratio of KD value for NRAS to KD value for KRAS)” value [2, 4] was “A (a compound having 10 or more and less than 20 is denoted as A)”.

In the case of `CCCN1C(=O)CN(C)C(=O)CN(C)C(=O)[C@H]([C@@H](C)CC)NC(=O)[C@H](CC(C)C)N(C)C(=O)C[C@@H](C(=O)N2CCOCC2)NC(=O)[C@H](C2CCCC2)N(C)C(=O)C2(CCCC2)NC(=O)[C@@H]2C[C@@H](OCC)CN2C(=O)[C@H](CCc2ccc(C(F)(F)F)c(Cl)c2)NC(=O)CN(C)C(=O)[C@@H]1Cc1ccc(C(F)(F)F)cc1` [PP0323] ([NMeL]I[Sar][Sar][NPrPhe(4-CF3)][Sar][hPhe(3-Cl-4-CF3)][Hyp](Et)[Ac5c][NMeGly(cPent)]D-Morpholide; lactam N-11), the “HRAS/KRAS (ratio of KD for GDP-bound HRAS wild-type to KD for KRAS)” value ([1]; KD ratio HRAS/KRAS, SPR) is reported as “B (a compound having 3 or more and less than 10 is denoted as B)” and the “NRAS/KRAS (ratio of KD for GDP-bound NRAS wild-type to KD for KRAS)” value ([2]; KD ratio NRAS/KRAS, SPR) is reported as “B (a compound having 3 or more and less than 10 is denoted as B)”.

For `CC[C@H](C)[C@@H]1NC(=O)[C@H](COC)N(C)C(=O)C[C@@H](C(=O)N(C)C)N(C)C(=O)[C@H](C2CCCCC2)N(C)C(=O)C2(CC(C)(C)C2)NC(=O)[C@@H]2C[C@@H](OC3CCCC3)CN2C(=O)[C@H](CCc2cc(F)c(C(F)(F)F)c(F)c2)NC(=O)CN(C)C(=O)[C@H](Cc2ccc(C(F)(F)F)cc2)N2CC/C=C\C[C@@H](C2=O)N(C)C(=O)CN(C)C1=O` [PP2656], the “HRAS/KRAS (ratio of KD value with respect to GDP-bound HRAS wild-type protein to KD value with respect to KRAS)” value ([1]; KD ratio HRAS/KRAS, class symbols) was “B (a compound having 3 or more and less than 10 is denoted as B)” and the “NRAS/KRAS (ratio of KD value with respect to GDP-bound NRAS wild-type protein to KD value with respect to KRAS)” value ([2]; KD ratio NRAS/KRAS, class symbols) was “A (a compound having 10 or more and less than 20 is denoted as A)”.

With `CCO[C@@H]1C[C@H]2C(=O)NC3(CCC3)C(=O)N(C)[C@@H](C3CCCC3)C(=O)N(C)[C@H](C)CC(=O)N(C)[C@@H](CC(C)C)C(=O)N[C@@H]([C@@H](C)CC)C(=O)N(C)CC(=O)N(C)[C@H]3C/C=C\CCN(C3=O)[C@@H](Cc3ccc(C(F)(F)F)cc3)C(=O)N(C)CC(=O)N[C@@H](CCc3cc(F)c(C(F)(F)F)c(F)c3)C(=O)N2C1` [PP1100] the “HRAS/KRAS (ratio of KD value with respect to HRAS to KD value with respect to KRAS)” value [1, 3] was “B (a compound having 3 or more and less than 10 is denoted as B)” and the “NRAS/KRAS (ratio of KD value with respect to NRAS to KD value with respect to KRAS)” value [2, 4] was “B (a compound having 3 or more and less than 10 is denoted as B)”.
